Patent US5753617A, “Peptide inhibitors of cellular adhesion” (Centocor, Inc., priority 1995, dated 1998)
pIC50: −log10 of the molar value. Read-outs that look alike come from different tables or passages of the source. Where a SMILES comes first, the peptide text is derived from it. Bridges are numbered along the chain shown (N, C = ends). [ ]: non-standard residue; d: D form.

Key:
[1] = disulfide bond, water
P-selectin = target: T1, P-selectin (Homo sapiens, UniProt P16109); assay: Inhibition of human neutrophil adhesion to purified P-selectin immobilized on plastic wells; assay type: cell-based; conditions: inhibiting the binding of human neutrophils to P-selectin
T1 construct: P-selectin is isolated from human platelet lysates; from tissue; host or cells: human platelets (outdated platelet packs from a blood bank)
T1 sequence (P16109 42-830): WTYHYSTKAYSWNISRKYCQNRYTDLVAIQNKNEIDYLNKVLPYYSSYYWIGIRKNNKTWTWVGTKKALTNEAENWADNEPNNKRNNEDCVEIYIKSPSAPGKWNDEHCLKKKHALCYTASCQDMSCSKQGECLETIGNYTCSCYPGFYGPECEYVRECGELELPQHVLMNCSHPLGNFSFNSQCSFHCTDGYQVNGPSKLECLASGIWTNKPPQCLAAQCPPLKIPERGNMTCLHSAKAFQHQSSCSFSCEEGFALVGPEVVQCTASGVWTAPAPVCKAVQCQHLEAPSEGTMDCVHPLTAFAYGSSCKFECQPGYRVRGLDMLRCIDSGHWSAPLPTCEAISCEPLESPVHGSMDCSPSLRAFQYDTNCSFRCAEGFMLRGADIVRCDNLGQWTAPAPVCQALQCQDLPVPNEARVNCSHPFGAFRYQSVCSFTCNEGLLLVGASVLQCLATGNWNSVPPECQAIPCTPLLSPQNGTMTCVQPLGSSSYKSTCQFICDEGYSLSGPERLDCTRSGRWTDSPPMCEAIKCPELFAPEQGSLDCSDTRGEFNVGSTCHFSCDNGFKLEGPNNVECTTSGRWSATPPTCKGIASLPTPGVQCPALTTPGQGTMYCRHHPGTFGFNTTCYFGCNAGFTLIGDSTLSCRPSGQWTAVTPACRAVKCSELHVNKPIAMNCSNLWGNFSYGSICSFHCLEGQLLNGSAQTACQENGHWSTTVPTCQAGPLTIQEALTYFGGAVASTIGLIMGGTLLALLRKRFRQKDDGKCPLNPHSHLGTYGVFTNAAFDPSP
How it was run: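 Isolated human neutrophils (2×10^5 per well) in HBSS with Ca2+/Mg2+ and HSA added to wells coated overnight at 4° C with platelet-derived P-selectin (5 micrograms/mL), HSA-blocked; 20 min at 22° C. Nonadherent cells removed by inverted centrifugation at 150 g; adherent cells quantified by myeloperoxidase activity.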

Structure (SMILES)	pIC50 (P-selectin)	also measured
CC(C)[C@H](NC(=O)[C@H](Cc1c[nH]c2ccccc12)NC(=O)[C@@H](NC(=O)[C@H](Cc1c[nH]c2ccccc12)NC(=O)[C@@H]1CSSC[C@H](N)C(=O)NCC(=O)NCC(=O)N1)[C@@H](C)O)C(N)=O [(29)] (H-CGGCWTWV-NH2; disulfide 1-4)	3.49	ring closure, yield of all isomers ([1]; from CC(C)[C@H](NC(=O)[C@H](Cc1c[nH]c2ccccc12)NC(=O)[C@@H](NC(=O)[C@H](Cc1c[nH]c2ccccc12)NC(=O)[C@H](CS)NC(=O)CNC(=O)CNC(=O)[C@@H](N)CS)[C@@H](C)O)C(N)=O, DMSO, 0.285 mM, 16.0 h): 8.5%
CC[C@H](C)[C@H](NC(=O)[C@H](CCCCN)NC(=O)[C@@H](N)CCCNC(=N)N)C(=O)NCC(=O)NCC(=O)N[C@H]1CSSC[C@@H](C(N)=O)NC(=O)[C@H](Cc2c[nH]c3ccccc23)NC(=O)[C@H]([C@@H](C)O)NC(=O)[C@H](Cc2c[nH]c3ccccc23)NC1=O [(33)] (H-RKIGGCWTWC-NH2; disulfide 6-10)	3.33	ring closure, yield of all isomers ([1]; from CC[C@H](C)[C@H](NC(=O)[C@H](CCCCN)NC(=O)[C@@H](N)CCCNC(=N)N)C(=O)NCC(=O)NCC(=O)N[C@@H](CS)C(=O)N[C@@H](Cc1c[nH]c2ccccc12)C(=O)N[C@H](C(=O)N[C@@H](Cc1c[nH]c2ccccc12)C(=O)N[C@@H](CS)C(N)=O)[C@@H](C)O, DMSO, 0.7 mM, 25.0 °C, 16.0 h): 5.3%
CC(C)[C@@H](NC(=O)[C@@H](Cc1c[nH]c2ccccc12)NC(=O)[C@H](NC(=O)[C@@H](Cc1c[nH]c2ccccc12)NC(=O)[C@H]1CSSC[C@@H](NC(=O)[C@@H](CCCCN)NC(=O)[C@H](N)CCCNC(=N)N)C(=O)N[C@@H](C)C(=O)N[C@@H](Cc2ccccc2)C(=O)N1)[C@H](C)O)C(N)=O [(37)] (H-[dR][dK][dC]AF[dC][dW][dT][dW][dV]-NH2; disulfide 3-6)	3.69	ring closure, yield of all isomers ([1]; from CC(C)[C@@H](NC(=O)[C@@H](Cc1c[nH]c2ccccc12)NC(=O)[C@H](NC(=O)[C@@H](Cc1c[nH]c2ccccc12)NC(=O)[C@@H](CS)NC(=O)[C@H](Cc1ccccc1)NC(=O)[C@H](C)NC(=O)[C@@H](CS)NC(=O)[C@@H](CCCCN)NC(=O)[C@H](N)CCCNC(=N)N)[C@H](C)O)C(N)=O, air/Cu wire, ammonium acetate, 0.731 mM, 22.0 h): 1.3%
CC(C)[C@@H](NC(=O)[C@@H](Cc1c[nH]c2ccccc12)NC(=O)[C@H](NC(=O)[C@@H](Cc1c[nH]c2ccccc12)NC(=O)[C@H]1CSSC[C@@H](NC(=O)[C@@H](CCCCN)NC(=O)[C@H](N)CCCNC(=N)N)C(=O)NCC(=O)N[C@@H](CC(=O)O)C(=O)N1)[C@H](C)O)C(N)=O [(42)] (H-[dR][dK][dC]GD[dC][dW][dT][dW][dV]-NH2; disulfide 3-6)	3.02	ring closure, yield of all isomers ([1]; from CC(C)[C@@H](NC(=O)[C@@H](Cc1c[nH]c2ccccc12)NC(=O)[C@H](NC(=O)[C@@H](Cc1c[nH]c2ccccc12)NC(=O)[C@@H](CS)NC(=O)[C@H](CC(=O)O)NC(=O)CNC(=O)[C@@H](CS)NC(=O)[C@@H](CCCCN)NC(=O)[C@H](N)CCCNC(=N)N)[C@H](C)O)C(N)=O, Cu wire, dilute NH4OH, pH 8, 3.19 mM, 20.0 h): 9.7%
CC(C)[C@@H](NC(=O)[C@@H](Cc1c[nH]c2ccccc12)NC(=O)[C@H](NC(=O)[C@@H](Cc1c[nH]c2ccccc12)NC(=O)[C@H]1CSSC[C@@H](NC(=O)[C@@H](CCCCN)NC(=O)[C@H](N)CCCNC(=N)N)C(=O)N[C@H](CCCNC(=N)N)C(=O)N[C@@H](Cc2ccccc2)C(=O)N1)[C@H](C)O)C(N)=O [(45)] (H-[dR][dK][dC][dR]F[dC][dW][dT][dW][dV]-NH2; disulfide 3-6)	3.58	ring closure, yield of all isomers ([1]; from CC(C)[C@@H](NC(=O)[C@@H](Cc1c[nH]c2ccccc12)NC(=O)[C@H](NC(=O)[C@@H](Cc1c[nH]c2ccccc12)NC(=O)[C@@H](CS)NC(=O)[C@H](Cc1ccccc1)NC(=O)[C@@H](CCCNC(=N)N)NC(=O)[C@@H](CS)NC(=O)[C@@H](CCCCN)NC(=O)[C@H](N)CCCNC(=N)N)[C@H](C)O)C(N)=O, DMSO, 0.357 mM, 25.0 °C, 48.0 h): 15.5%

Now those with a higher pIC50 (P-selectin), led by results:

pIC50 (P-selectin)	Structure (SMILES)	also measured
4.66	CC(C)[C@H](NC(=O)[C@H](Cc1c[nH]c2ccccc12)NC(=O)[C@@H](NC(=O)[C@H](Cc1c[nH]c2ccccc12)NC(=O)[C@@H]1CSSC[C@H](NC(=O)[C@@H](N)CCCCN)C(=O)NCC(=O)NCC(=O)N1)[C@@H](C)O)C(N)=O [(27)] (H-KCGGCWTWV-NH2; disulfide 2-5)	ring closure, yield of all isomers ([1]; from CC(C)[C@H](NC(=O)[C@H](Cc1c[nH]c2ccccc12)NC(=O)[C@@H](NC(=O)[C@H](Cc1c[nH]c2ccccc12)NC(=O)[C@H](CS)NC(=O)CNC(=O)CNC(=O)[C@H](CS)NC(=O)[C@@H](N)CCCCN)[C@@H](C)O)C(N)=O, K3Fe(CN)6/NH4OH (half) and DMSO (half), 0.37 mM, 16.0 h): 10.9%
4.12	CC(C)[C@@H](NC(=O)[C@@H](Cc1c[nH]c2ccccc12)NC(=O)[C@H](NC(=O)[C@@H](Cc1c[nH]c2ccccc12)NC(=O)[C@H]1CSSC[C@@H](NC(=O)[C@@H](CCCCN)NC(=O)[C@H](N)CCCNC(=N)N)C(=O)NCC(=O)N[C@@H](C)C(=O)N1)[C@H](C)O)C(N)=O [(38)] (H-[dR][dK][dC]GA[dC][dW][dT][dW][dV]-NH2; disulfide 3-6)	ring closure, yield of all isomers ([1]; from CC(C)[C@@H](NC(=O)[C@@H](Cc1c[nH]c2ccccc12)NC(=O)[C@H](NC(=O)[C@@H](Cc1c[nH]c2ccccc12)NC(=O)[C@@H](CS)NC(=O)[C@H](C)NC(=O)CNC(=O)[C@@H](CS)NC(=O)[C@@H](CCCCN)NC(=O)[C@H](N)CCCNC(=N)N)[C@H](C)O)C(N)=O, air/Cu wire, NH4OH, 3.31 mM, 20.0 h): 15.1%
4.51	CC(C)[C@@H](NC(=O)[C@@H](Cc1c[nH]c2ccccc12)NC(=O)[C@H](NC(=O)[C@@H](Cc1c[nH]c2ccccc12)NC(=O)[C@H]1CSSC[C@@H](NC(=O)[C@@H](CCCCN)NC(=O)[C@H](N)CCCNC(=N)N)C(=O)N[C@@H](CCCNC(=N)N)C(=O)N[C@@H](Cc2ccccc2)C(=O)N1)[C@H](C)O)C(N)=O [(39)] (H-[dR][dK][dC]RF[dC][dW][dT][dW][dV]-NH2; disulfide 3-6)	ring closure, yield of all isomers ([1]; from CC(C)[C@@H](NC(=O)[C@@H](Cc1c[nH]c2ccccc12)NC(=O)[C@H](NC(=O)[C@@H](Cc1c[nH]c2ccccc12)NC(=O)[C@@H](CS)NC(=O)[C@H](Cc1ccccc1)NC(=O)[C@H](CCCNC(=N)N)NC(=O)[C@@H](CS)NC(=O)[C@@H](CCCCN)NC(=O)[C@H](N)CCCNC(=N)N)[C@H](C)O)C(N)=O, DMSO, 0.315 mM, 25.0 °C, 96.0 h): 12.2%
4.58	CC(C)[C@@H](NC(=O)[C@@H](Cc1c[nH]c2ccccc12)NC(=O)[C@H](NC(=O)[C@@H](Cc1c[nH]c2ccccc12)NC(=O)[C@H]1CSSC[C@@H](NC(=O)[C@@H](CCCCN)NC(=O)[C@H](N)CCCNC(=N)N)C(=O)NCC(=O)N[C@@H](CC(N)=O)C(=O)N1)[C@H](C)O)C(N)=O [(41)] (H-[dR][dK][dC]GN[dC][dW][dT][dW][dV]-NH2; disulfide 3-6)	ring closure, yield of all isomers ([1]; from CC(C)[C@@H](NC(=O)[C@@H](Cc1c[nH]c2ccccc12)NC(=O)[C@H](NC(=O)[C@@H](Cc1c[nH]c2ccccc12)NC(=O)[C@@H](CS)NC(=O)[C@H](CC(N)=O)NC(=O)CNC(=O)[C@@H](CS)NC(=O)[C@@H](CCCCN)NC(=O)[C@H](N)CCCNC(=N)N)[C@H](C)O)C(N)=O, Cu wire, dilute NH4OH (printed NH2OH), pH 8, 3.2 mM, 20.0 h): 6%
5.15	CC(C)[C@@H](NC(=O)[C@@H](Cc1c[nH]c2ccccc12)NC(=O)[C@H](NC(=O)[C@@H](Cc1c[nH]c2ccccc12)NC(=O)[C@H]1CSSC[C@@H](NC(=O)[C@@H](CCCCN)NC(=O)[C@H](N)CCCNC(=N)N)C(=O)N[C@H](Cc2c[nH]cn2)C(=O)N[C@@H](Cc2ccccc2)C(=O)N1)[C@H](C)O)C(N)=O [(47)] (H-[dR][dK][dC][dH]F[dC][dW][dT][dW][dV]-NH2; disulfide 3-6)	ring closure, yield of all isomers ([1]; from CC(C)[C@@H](NC(=O)[C@@H](Cc1c[nH]c2ccccc12)NC(=O)[C@H](NC(=O)[C@@H](Cc1c[nH]c2ccccc12)NC(=O)[C@@H](CS)NC(=O)[C@H](Cc1ccccc1)NC(=O)[C@@H](Cc1c[nH]cn1)NC(=O)[C@@H](CS)NC(=O)[C@@H](CCCCN)NC(=O)[C@H](N)CCCNC(=N)N)[C@H](C)O)C(N)=O, DMSO, 0.698 mM, 24.0 h): 3.5%
